Reference: patent US10456390B2, “Combinations comprising MABA compounds and corticosteroids” (ALMIRALL, S.A., priority 2013, dated 2019)

Tested on: IL-8 secretion induced by LPS in peripheral blood neutrophils
Assay: Inhibition of IL-8 secretion induced by LPS in isolated peripheral blood neutrophils (ELISA)
Format: cell-based
Details: Homo sapiens, Neutrophil; for inhibition at 10 pM: single agent at 0.01 nM
Procedure: 5 Healthy subjects were included for leukocyte experiments. Pulmonary function tests (forced spirometry) and arterial blood gas measurements were performed during the days prior to sample.
Neutrophils were isolated from peripheral blood of healthy volunteers according to standard procedures established in the laboratory (Milara J et al., Respiration 2012; 83, 147-158).
Isolated neutrophils were incubated with different drugs (MABA compound, mometasone or fluticasone) or vehicle for 30 minutes before incubation with LPS (1 mcg/mL) (Lipopolysaccharide, a representative stimulus as inflammatory mediator) for 6 hours in standard cell culture conditions (37° C. and 5% CO2). Supernatant were collected to measure IL-8 (the inflammatory marker).
IL-8 (Interleukin-8) was determined by ELISA according to the standard procedure.
Data was presented as mean±SEM (see FIG. 1 and FIG. 2). Statistical analysis of results was carried out by analysis of variance (ANOVA) followed by Bonferroni test, by Student's t test, or by non-parametric tests as appropriate (GraphPad Software Inc, San Diego, Calif., USA). Significance was accepted when P<0.05.

[1] = 30 min pre-incubation, LPS 1 mcg/mL 6 h, neutrophils from healthy subjects (5 volunteers in triplicate), Table 1

Row | SMILES | inhibition at 10 pM [1] [%] | inhibition at 10 pM (LPS-induced IL-8 secretion, neutrophils from healthy subjects, Table 2) [%] | inhibition at 0.0001 µM (single agent at 0.1 nM, LPS-induced IL-8 secretion, neutrophils from healthy subjects, Table 2) [%]
1 | CN(CCCn1nnc2cc(CNC[C@H](O)c3ccc(O)c4[nH]c(=O)ccc34)ccc21)[C@H]1CC[C@H](OC(=O)C(O)(c2cccs2)c2cccs2)CC1 [Cpd 2, Trans-4-[{3-[5-({[(2R)-2-hydroxy-2-(8-hydroxy-2-oxo-1,2-dihydroquinolin-5-yl)ethyl]amino}methyl)-1H-1,2,3-benzotriazol-1-yl]propyl}(methyl)amino]cyclohexyl hydroxy(di-2-thienyl)acetate] | 4.17 | 4.17 | 
2 | C[C@@H]1C[C@H]2[C@@H]3C[C@H](F)C4=CC(=O)C=C[C@]4(C)[C@@]3(F)[C@@H](O)C[C@]2(C)[C@@]1(O)C(=O)SCF [Fluticasone, fluticasone] |  |  | 10.2
3 | C[C@@H]1C[C@H]2[C@@H]3CCC4=CC(=O)C=C[C@]4(C)[C@@]3(Cl)[C@@H](O)C[C@]2(C)[C@@]1(O)C(=O)CCl [Mometasone, mometasone] | 2.85 |  | 
